# Measured values from US8263606B2 (Xenon Pharmaceuticals Inc., priority 2008, dated 2012).
# Key:
# Nav1.4 = Nav1.4 (Cricetulus griseus, UniProt A0A9J7H6F9); assay type: cell-based, Chinese Hamster
# Nav1.4 and 1.5 = assay type: cell-based, rat
# Nav1.9 and Nav1.7 = assay type: cell-based, Human
# Nav1.8 = Nav1.8 (Homo sapiens, UniProt Q9Y5Y9); assay type: cell-based
# Nav1.2 = Nav1.2 (Rattus norvegicus, UniProt P04775)
# [1] = rat; intravenous application; concentrations that do not affect general behaviour and motor function; cited from earlier work
# sodium channel = test: Guanidine influx assay (14C-guanidine radiotracer flux, in vitro); assay type: cell-based, human or rat; settings: guanidine influx assay using a known cell line that expresses a sodium channel
# Summary of the method: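 Radiotracer read-out: intracellular 14C-guanidine counted after washing with guanidine-supplemented low-sodium buffer. Cells expressing human or rat channels get test agent plus aconitine activator and tracer, incubated at ambient temperature. Dilution series centred on 1 μM; IC50 by sigmoidal dose-response fit.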
# [2] = test system: inactivated state of the channel of interest (sodium channel); test: Electrophysiological assay (whole cell voltage clamp, in vitro); assay type: cell-based; settings: affinity for the inactivated state of the channel of interest
# Summary of the method: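 Whole-cell voltage clamp at ambient temperature on stably transfected cells; CsF-based pipette, pH 7.4 NaCl bath. Current blockade measured at holding potentials of −120 mV (resting, Kr) and one giving 10% availability (inactivated, Ki), held ≥10 s to equilibrate; apparent Kd calculated from fractional block.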
# CYP3A4 = CYP3A4 (Homo sapiens, UniProt P08684); test: Cytochrome P450 (CYP450) Inhibition Assay, CYP3A4 (Vivid fluorescence, BOMCC substrate); settings: human, P450 Baculosomes (recombinant CYP3A4), probe BOMCC (Vivid substrate)
# Chain of CYP3A4 (P08684 whole entry): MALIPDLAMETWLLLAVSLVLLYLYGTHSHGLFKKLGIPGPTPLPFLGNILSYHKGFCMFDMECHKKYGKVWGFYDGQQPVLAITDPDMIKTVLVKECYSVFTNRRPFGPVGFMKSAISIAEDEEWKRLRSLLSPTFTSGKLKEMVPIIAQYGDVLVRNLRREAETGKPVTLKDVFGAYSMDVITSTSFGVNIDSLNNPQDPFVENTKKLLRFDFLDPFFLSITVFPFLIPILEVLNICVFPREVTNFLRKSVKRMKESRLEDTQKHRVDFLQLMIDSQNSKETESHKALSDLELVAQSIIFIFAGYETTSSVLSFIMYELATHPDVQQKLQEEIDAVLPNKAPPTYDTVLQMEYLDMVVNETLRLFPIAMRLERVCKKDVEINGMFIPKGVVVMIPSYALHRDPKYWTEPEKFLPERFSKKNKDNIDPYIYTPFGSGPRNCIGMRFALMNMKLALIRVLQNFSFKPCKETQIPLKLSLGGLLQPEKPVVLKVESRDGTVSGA
# Chain of Nav1.4 (A0A9J7H6F9 1-1930): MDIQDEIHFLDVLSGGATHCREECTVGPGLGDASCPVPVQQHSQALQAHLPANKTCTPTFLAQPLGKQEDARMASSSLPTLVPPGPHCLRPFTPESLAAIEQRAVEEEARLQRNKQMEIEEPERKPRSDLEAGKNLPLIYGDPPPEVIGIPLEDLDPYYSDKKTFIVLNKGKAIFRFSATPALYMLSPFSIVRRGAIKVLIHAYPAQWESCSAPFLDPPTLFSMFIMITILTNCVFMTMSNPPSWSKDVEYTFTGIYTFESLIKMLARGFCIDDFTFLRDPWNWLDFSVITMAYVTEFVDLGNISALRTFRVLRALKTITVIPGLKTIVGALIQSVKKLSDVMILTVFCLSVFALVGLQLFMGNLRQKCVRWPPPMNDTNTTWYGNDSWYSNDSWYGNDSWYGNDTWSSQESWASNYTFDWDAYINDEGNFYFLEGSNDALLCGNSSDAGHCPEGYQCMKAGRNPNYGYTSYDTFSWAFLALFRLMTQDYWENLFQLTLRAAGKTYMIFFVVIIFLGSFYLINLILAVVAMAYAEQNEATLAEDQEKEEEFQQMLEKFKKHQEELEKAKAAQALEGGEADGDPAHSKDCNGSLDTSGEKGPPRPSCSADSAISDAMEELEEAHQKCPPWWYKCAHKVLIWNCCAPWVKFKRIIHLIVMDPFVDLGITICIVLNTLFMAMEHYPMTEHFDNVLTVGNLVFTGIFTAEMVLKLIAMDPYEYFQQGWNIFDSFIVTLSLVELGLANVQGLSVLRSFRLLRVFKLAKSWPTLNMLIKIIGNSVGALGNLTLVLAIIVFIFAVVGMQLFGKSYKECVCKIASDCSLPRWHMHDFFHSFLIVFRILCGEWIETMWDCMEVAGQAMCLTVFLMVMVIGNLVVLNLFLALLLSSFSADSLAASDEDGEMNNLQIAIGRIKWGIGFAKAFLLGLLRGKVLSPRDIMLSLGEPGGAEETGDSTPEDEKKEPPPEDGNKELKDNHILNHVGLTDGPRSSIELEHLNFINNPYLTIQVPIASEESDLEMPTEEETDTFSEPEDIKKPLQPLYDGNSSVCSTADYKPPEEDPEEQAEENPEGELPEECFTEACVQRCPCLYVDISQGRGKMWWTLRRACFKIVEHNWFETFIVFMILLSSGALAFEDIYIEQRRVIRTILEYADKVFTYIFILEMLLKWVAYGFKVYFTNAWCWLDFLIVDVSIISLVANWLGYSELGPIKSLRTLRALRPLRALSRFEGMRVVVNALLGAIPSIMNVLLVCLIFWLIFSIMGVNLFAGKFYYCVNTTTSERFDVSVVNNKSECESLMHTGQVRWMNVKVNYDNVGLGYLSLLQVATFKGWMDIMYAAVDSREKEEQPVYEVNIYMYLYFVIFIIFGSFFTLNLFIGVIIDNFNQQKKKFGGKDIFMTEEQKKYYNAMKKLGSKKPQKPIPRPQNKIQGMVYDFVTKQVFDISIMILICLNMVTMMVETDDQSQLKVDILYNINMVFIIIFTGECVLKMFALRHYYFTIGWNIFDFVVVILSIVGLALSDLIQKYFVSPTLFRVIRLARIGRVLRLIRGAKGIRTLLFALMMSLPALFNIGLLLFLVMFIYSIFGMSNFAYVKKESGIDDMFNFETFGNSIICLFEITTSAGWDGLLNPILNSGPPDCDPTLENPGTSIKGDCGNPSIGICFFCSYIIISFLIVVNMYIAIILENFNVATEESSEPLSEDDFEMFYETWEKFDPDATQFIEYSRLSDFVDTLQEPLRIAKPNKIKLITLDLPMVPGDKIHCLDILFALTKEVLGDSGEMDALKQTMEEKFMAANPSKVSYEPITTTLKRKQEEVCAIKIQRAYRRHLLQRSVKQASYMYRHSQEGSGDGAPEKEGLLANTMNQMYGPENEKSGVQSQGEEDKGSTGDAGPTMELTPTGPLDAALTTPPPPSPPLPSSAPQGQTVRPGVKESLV
# Chain of Nav1.2 (P04775 whole entry, looked up): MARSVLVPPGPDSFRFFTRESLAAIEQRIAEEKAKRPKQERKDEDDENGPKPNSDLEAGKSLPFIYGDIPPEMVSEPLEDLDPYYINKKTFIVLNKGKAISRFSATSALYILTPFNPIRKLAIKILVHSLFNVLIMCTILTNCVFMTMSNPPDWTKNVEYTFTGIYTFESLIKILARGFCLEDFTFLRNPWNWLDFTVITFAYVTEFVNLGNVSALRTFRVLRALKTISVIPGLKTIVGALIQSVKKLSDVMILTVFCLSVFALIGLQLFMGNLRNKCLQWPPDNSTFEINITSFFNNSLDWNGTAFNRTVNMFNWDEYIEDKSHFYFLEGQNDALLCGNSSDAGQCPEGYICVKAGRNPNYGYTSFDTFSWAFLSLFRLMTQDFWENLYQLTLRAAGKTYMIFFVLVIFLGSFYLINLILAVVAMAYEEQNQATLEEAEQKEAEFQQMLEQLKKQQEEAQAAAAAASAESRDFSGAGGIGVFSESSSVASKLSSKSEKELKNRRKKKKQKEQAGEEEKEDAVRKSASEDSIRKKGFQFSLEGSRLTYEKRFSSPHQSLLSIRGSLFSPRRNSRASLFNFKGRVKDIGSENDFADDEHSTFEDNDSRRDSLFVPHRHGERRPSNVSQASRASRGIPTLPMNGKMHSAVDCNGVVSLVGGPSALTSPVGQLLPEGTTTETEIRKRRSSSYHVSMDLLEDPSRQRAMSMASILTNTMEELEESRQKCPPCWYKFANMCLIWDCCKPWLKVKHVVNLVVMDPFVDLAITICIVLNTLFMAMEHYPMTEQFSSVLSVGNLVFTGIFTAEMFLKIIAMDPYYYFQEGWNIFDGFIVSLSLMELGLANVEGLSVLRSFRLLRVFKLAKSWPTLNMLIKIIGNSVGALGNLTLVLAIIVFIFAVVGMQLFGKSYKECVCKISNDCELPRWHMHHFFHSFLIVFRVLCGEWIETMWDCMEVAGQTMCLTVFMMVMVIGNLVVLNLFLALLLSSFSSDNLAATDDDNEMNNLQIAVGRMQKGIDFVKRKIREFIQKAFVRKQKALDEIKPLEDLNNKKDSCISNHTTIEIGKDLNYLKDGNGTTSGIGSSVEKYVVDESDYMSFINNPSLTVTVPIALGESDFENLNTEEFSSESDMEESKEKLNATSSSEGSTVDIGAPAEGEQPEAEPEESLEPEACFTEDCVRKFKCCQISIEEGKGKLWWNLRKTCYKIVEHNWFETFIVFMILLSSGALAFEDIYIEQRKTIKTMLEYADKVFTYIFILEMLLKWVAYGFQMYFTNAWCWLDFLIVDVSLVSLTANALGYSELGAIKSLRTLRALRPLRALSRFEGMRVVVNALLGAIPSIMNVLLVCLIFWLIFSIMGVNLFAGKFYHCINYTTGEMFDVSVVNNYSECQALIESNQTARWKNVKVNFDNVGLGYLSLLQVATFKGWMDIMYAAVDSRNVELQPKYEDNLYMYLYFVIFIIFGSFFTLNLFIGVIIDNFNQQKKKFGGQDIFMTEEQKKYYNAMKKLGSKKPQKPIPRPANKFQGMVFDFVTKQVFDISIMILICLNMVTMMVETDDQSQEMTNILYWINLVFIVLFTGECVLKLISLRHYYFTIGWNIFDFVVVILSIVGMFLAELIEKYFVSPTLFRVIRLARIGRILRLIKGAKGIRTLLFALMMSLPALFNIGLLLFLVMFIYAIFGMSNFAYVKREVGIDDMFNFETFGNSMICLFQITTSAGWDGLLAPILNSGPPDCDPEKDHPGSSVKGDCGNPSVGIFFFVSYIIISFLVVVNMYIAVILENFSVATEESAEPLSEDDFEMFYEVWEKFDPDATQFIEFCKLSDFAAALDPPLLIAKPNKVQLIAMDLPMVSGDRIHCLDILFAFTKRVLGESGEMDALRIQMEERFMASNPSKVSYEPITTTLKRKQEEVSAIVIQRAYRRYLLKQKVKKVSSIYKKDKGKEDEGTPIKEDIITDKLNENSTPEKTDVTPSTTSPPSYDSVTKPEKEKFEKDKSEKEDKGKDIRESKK
Compound,IC50 (sodium channel; activity level class),Ki [2],melting point,inhibition at 10 µM (CYP3A4),other results
"NC1=N[C@H](O)[C@H]2[C@H]3O[C@]4(O)O[C@@H]([C@@H](O)[C@@]2(N1)[C@@H]4O)[C@]3(O)CO [TTX, tetrodotoxin]",–,–,–,–,block of the increase in [14C] guanidine influx (Nav1.4): completely blocked using TTX.; block of the increase in [14C] guanidine influx (Nav1.4 and 1.5): partially blocked by TTX at 100 nM; block of the increase in [14C] guanidine influx (Nav1.9 and Nav1.7): background was partially blocked; block of the increase in [14C] guanidine influx (Nav1.8): TTX partially blocked influx; block of the increase in [14C] guanidine influx (Nav1.2): guanidine influx was completely
CCN(CC)CC(=O)Nc1c(C)cccc1C [lidocaine],–,–,–,–,effect on ectopic activity and tactile allodynia [1]: suppress the ectopic activity and reverse the tactile allodynia
"O=C1N(Cc2cccnc2)c2ccccc2C12COc1cc3c(cc12)OCCO3 (stereo not drawn) [Example 1.2, 1-(pyridin-3-ylmethyl)-2,3-dihydrospiro[furo[2,3-g][1,4]benzodioxine-8,3′-indol]-2′(1′H)-one]",1 to 100 nM,> 300 nM,142 to 143 °C,< 50%,–
"O=C1N(Cc2ccc(C(F)(F)F)o2)c2ccccc2[C@]12COc1cc3c(cc12)CCO3 [Example 5.7, (3S)-1′-{[5-(trifluoromethyl)furan-2-yl]methyl}-5,6-dihydrospiro[benzo[1,2-b:5,4-b′]difuran-3,3′-indol]-2′(1′H)-one]",1 to 100 nM,< 300 nM,64 to 65 °C,> 50%,–
"O=C1Nc2cccc(-c3cnc4ccccc4c3)c2C12COc1cc3c(cc12)OCCO3 (stereo not drawn) [Example 3.34, 4′-quinolin-3-yl-2,3-dihydrospiro[furo[2,3-g][1,4]benzodioxine-8,3′-indol]-2′(1′H)-one]",100 to 1000 nM,> 300 nM,221 to 224 °C,> 50%,–
"O=C1N(Cc2ccc3nonc3c2)c2ccccc2C12COc1cc3c(cc12)CCO3 (stereo not drawn) [Example 4.27, 1′-(2,1,3-benzoxadiazol-5-ylmethyl)-5,6-dihydrospiro[benzo[1,2-b:5,4-b′]difuran-3,3′-indol]-2′(1′H)-one]",1 to 100 nM,> 300 nM,169 to 171 °C,> 50%,–
"O=C1N(C[C@@H]2COCCO2)c2ccccc2C12COc1cc3c(cc12)OCCCO3 (stereo partly drawn) [Example 8.12, 1′-[(2R)-1,4-dioxan-2-ylmethyl]-3,4-dihydro-2H-spiro[furo[2,3-h][1,5]benzodioxepine-9,3′-indol]-2′(1′H)-one]",100 to 1000 nM,> 300 nM,144 to 147 °C,< 50%,–
"Cc1nc(-c2ccc3c(c2)OCC32C(=O)N(Cc3ccccn3)c3ccccc32)no1 (stereo not drawn) [Example 11.85, 6-(5-methyl-1,2,4-oxadiazol-3-yl)-1′-(pyridin-2-ylmethyl)spiro[1-benzofuran-3,3′-indol]-2′(1′H)-one]",–,> 300 nM,147 to 148 °C,< 50%,IC50 (sodium channel): 100 to 1000 nM
"O=C1N(Cc2ccccn2)c2cccc(-c3ccc(Oc4ccccc4)cc3)c2C12COc1cc3c(cc12)OCCO3 (stereo not drawn) [Example 4.103, 4′-(4-phenoxyphenyl)-1′-(pyridin-2-ylmethyl)-2,3-dihydrospiro[furo[2,3-g][1,4]benzodioxine-8,3′-indol]-2′(1′H)-one]",100 to 1000 nM,< 300 nM,196 to 199 °C,< 50%,–
"O=C1N(Cc2ccc3c(c2)OCCO3)c2ccccc2C12COc1cc3c(cc12)OCCO3 (stereo not drawn) [Example 4.48, 1-(2,3-dihydro-1,4-benzodioxin-6-ylmethyl)-2,3-dihydrospiro[furo[2,3-g][1,4]benzodioxine-8,3′-indol]-2′(1′H)-one]",1 to 100 nM,< 300 nM,120 to 123 °C,< 50%,–
"N#Cc1cccc(CN2C(=O)C3(COc4cc5c(cc43)CCO5)c3ccccc32)c1 (stereo not drawn) [Example 4.22, 3-[(2′-oxo-5,6-dihydrospiro[benzo[1,2-b:5,4-b′]difuran-3,3′-indol]-1′(2′H)-yl)methyl]benzonitrile]",1 to 100 nM,> 300 nM,187 to 193 °C,> 50%,–
